The values that follow come from US9938257B2 (Sunshine Lake Pharma Co., Ltd., priority 2015, dated 2018).

Data set [1] in a line: Compound stability in human liver microsomes. Type of data set: in vitro ADME. Particulars: pH 7.4; for half-life at 5 μM: human liver microsomes 0.5 mg protein/mL, compound 5 μM, NADPH 1.0 mM, 37° C., read-out: Human T1/2; for CLint scaled at 5 μM: human liver microsomes, in vivo CLint extrapolated. The procedure:
(§1) Human or rat liver microsomes incubations were conducted in duplicate in polypropylene tubes. The typical incubation mixtures consisted of human or rat liver microsomes (0.5 mg protein/mL), compounds of interest (5 μM) and NADPH (1.0 mM) in a total volume of 200 μL potassium phosphate buffer (PBS, 100 mM, pH 7.4). Compounds were dissolved in DMSO and diluted with PBS such that the final concentration of DMSO was 0.05%. The enzymatic reactions were commenced with the addition of protein after a 3-min preincubation and incubated in a water bath open to the air at 37° C. Reactions were terminated at various time points (0, 5, 10, 15, 30, 60 min) by adding equal volume of ice-cold acetonitrile. The samples were stored at −80° C. until LC/MS/MS assays.
(§2) The concentrations of compounds in the incubation mixtures of human or rat liver microsomes were determined by a LC/MS/MS method. The ranges of the linearity in the concentration range were determined for each tested compounds.
(§3) A parallel incubation was performed using denatured microsomes as the negative control, and reactions were terminated at various time points (0, 15, 60 min) after incubation at 37° C.
(§4) Dextromethorphan (70 μM) was selected as the positive control, and reactions were terminated at various time points (0, 5, 10, 15, 30, 60 min) after incubation at 37° C. Both positive and negative control samples were included in each assay to ensure the integrity of the microsomal incubation system.
(§5) The concentrations of compounds in human or rat liver microsome incubations were plotted as a percentage of the relevant zero time point control for each reaction. The in vivo CLint were extrapolated (ref.: Naritomi, Y.; Terashita, S.; Kimura, S.; Suzuki, A.; Kagayama, A.; and Sugiyama, Y.; Prediction of human hepatic clearance from in vivo animal experiments and in vitro metabolic studies with liver microsomes from animals and humans. Drug Metab. Dispos., 2001, 29: 1316-1324).

Data set [2] is described as follows: Compound stability in rat liver microsomes. Type of data set: in vitro ADME. As to conditions: pH 7.4; for half-life at 5 μM: rat liver microsomes 0.5 mg protein/mL, compound 5 μM, NADPH 1.0 mM, 37° C., read-out: Rat T1/2; for CLint scaled at 5 μM: rat liver microsomes, in vivo CLint extrapolated. The procedure: as §1, §2, §3, §4, §5
The next data set concerns the target Aurora-A (h) (Homo sapiens (Human), UniProt O14965). Briefly: Aurora-A (h) kinase activity assay. Type of data set: biochemical. The procedure: (§6) The above assay procedure can be used to determine the IC50 for inhibition and/or the inhibition constant, Ki. The IC50 is defined as the concentration of compound required to reduce the enzyme activity by 50% under the condition of the assay. The IC50 value is estimated by preparing a 10 point curve using a ½ log dilution series (for example, a typical curve may be prepared using the following compound concentrations: 3 μM, 1 μM, 0.3 μM, 0.1 μM, 0.03 μM, 0.01 μM, 0.003 μM, 0.001 μM, 0.0003 μM and 0 μM).
Aurora-A (h) is incubated with 8 mM MOPS pH 7.0, 0.2 mM EDTA, 200 μM LRRASLG (Kemptide), 10 mM MgAcetate and [γ-^33P-ATP] (specific activity approx. 500 cpm/pmol, concentration as required). The reaction is initiated by the addition of the MgATP mix. After incubation for 40 minutes at room temperature, the reaction is stopped by the addition of 3% phosphoric acid solution. 10 μL of the reaction is then spotted onto a P30 filtermat and washed three times for 5 minutes in 75 mM phosphoric acid and once in methanol prior to drying and scintillation counting.
(§7) The kinase assays described herein were performed at Millipore UK Ltd, Dundee Technology Park, Dundee DD2 1SW, UK.

Data set [3] can be described thus: Pharmacokinetics after intravenous and oral administration in rats. Type of data set: in vivo. Particulars: for Clearance (CL) after iv dosing / AUC(0-t) / half-life / Vd: dose 1 mg/kg, iv dosing; for F: oral bioavailability, iv dose 1 mg/kg; for AUC(0-t) / half-life / Vd: rat, plasma; for Vd: read-out: Vss. The procedure: The compounds disclosed herein are assessed in pharmacokinetic studies in mice, rats, dogs or monkeys. The compounds are administered as a water solution, 2% HPMC+1% TWEEN®80 in water solution, 5% DMSO+5% solutol in saline, 4% MC suspension or capsule. For the intravenous administration, the animals are generally given at 0.5, 1 or 2 mg/kg dose. For the oral (p.o.) dosing, mice and rats are generally given 0.5, 1, 5 or 10 mg/kg dose, and dogs and monkeys are generally given 10 mg/kg dose. The blood samples (0.3 mL) are drawn at 0.25, 0.5, 1.0, 2.0, 3.0, 4.0, 6.0, 8.0, 12 and 24 h time points or 0.083, 0.25, 0.5, 1.0, 2.0, 4.0, 6.0, 8.0 and 24 h time points and centrifuged at 3,000 or 4000 rpm for 2 to 10 min. The plasma solutions are collected, and stored at −20° C. or −70° C. until analyzed by LC/MS/MS as described above.

Another data set deals with JAK1 (h) (Homo sapiens (Human), UniProt P23458). Description: JAK1 (h) kinase activity assay. Type of data set: biochemical. How it is done:
as §6
JAK1 (h) is incubated with 20 mM Tris/HCl pH 7.5, 0.2 mM EDTA, 500 μM GEEPLYWSFPAKKK, 10 mM MgAcetate and [γ-^33P-ATP] (specific activity approx. 500 cpm/pmol, concentration as required). The reaction is initiated by the addition of the MgATP mix. After incubation for 40 minutes at room temperature, the reaction is stopped by the addition of 3% phosphoric acid solution. 10 μL of the reaction is then spotted onto a P30 filtermat and washed three times for 5 minutes in 75 mM phosphoric acid and once in methanol prior to drying and scintillation counting.
as §7

Aurora-A (h), sequence (O14965 whole entry): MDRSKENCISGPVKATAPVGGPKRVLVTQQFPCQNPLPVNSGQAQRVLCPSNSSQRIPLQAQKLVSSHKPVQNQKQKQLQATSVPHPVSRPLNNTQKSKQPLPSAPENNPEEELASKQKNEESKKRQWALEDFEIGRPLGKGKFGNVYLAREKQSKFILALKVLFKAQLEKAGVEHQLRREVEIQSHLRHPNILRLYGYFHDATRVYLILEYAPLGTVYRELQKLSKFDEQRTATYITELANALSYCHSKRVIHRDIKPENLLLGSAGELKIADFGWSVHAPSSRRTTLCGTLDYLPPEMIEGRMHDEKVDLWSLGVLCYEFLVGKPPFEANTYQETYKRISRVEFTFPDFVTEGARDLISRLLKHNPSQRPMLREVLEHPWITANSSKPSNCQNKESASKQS
JAK1 (h), sequence (P23458 whole entry): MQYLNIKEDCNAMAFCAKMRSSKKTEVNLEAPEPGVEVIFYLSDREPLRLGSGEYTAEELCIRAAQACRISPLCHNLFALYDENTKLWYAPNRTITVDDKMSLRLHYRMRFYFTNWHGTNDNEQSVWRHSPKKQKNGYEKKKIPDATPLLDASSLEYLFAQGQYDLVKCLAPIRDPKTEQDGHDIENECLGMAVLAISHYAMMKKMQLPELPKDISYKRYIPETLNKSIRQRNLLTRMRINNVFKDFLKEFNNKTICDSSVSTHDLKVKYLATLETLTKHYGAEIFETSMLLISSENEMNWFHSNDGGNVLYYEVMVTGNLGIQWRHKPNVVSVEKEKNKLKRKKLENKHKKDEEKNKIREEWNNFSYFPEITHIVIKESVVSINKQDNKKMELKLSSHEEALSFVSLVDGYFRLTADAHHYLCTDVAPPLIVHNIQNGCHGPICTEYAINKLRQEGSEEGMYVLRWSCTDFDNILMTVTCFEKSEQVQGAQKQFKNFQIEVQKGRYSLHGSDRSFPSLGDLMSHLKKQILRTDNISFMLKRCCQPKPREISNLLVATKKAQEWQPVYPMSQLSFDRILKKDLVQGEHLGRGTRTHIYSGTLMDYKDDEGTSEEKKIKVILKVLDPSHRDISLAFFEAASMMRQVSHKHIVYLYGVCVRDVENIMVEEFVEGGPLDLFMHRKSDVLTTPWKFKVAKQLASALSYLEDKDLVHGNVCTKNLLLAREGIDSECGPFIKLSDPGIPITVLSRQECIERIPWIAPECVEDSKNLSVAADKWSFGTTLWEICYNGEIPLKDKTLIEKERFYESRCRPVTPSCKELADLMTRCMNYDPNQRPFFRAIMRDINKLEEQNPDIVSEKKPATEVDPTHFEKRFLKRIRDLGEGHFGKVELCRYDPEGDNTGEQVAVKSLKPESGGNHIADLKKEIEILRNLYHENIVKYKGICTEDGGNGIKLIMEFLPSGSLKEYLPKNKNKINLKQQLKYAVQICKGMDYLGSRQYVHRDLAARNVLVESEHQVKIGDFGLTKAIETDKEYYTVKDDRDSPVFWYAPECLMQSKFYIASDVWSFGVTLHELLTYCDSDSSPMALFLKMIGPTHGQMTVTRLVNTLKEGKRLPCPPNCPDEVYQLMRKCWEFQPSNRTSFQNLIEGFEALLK

`Cn1cc(Nc2ncc(Cl)c(NC3CC4CN(S(=O)(=O)C5CC5)CC4C3)n2)cn1` (stereo not shown) [Ex. 13, 5-chloro-N^4-(2-(cyclopropylsulfonyl)octahydrocyclopenta[c]pyrrol-5-yl)-N^2-(1-methyl-1H-pyrazol-4-yl)pyrimidine-2,4-diamine]: in data set [1], the half-life at 5 μM turned out to be 33.1 min and the intrinsic metabolic clearance (CLint scaled) at 5 μM was 52.5 mL/min/kg. Also, in data set [2], the half-life at 5 μM was found to be 5.48 min and the CLint scaled at 5 μM was 454 mL/min/kg. For the same compound, at Aurora-A (h), the IC50 amounted to 5 nM.
The corresponding values for `CC(O)Cn1cc(Nc2ncc(Cl)c(NC3CC4CN(C(=O)NC5CC5)CC4C3)n2)cn1` (stereo not shown) [Ex. 41, 5-((5-chloro-2-((1-(2-hydroxypropyl)-1H-pyrazol-4-yl)amino)pyrimidin-4-yl)amino)-N-cyclopropylhexahydrocyclopenta[c]pyrrole-2(1H)-carboxamide] are 73.5 min, 23.7 mL/min/kg, 43.7 min, 56.8 mL/min/kg and 19 nM.
In the case of `CC(C)(O)Cn1cc(Nc2ncc(Cl)c(NC3CC4CN(S(=O)(=O)NC5CC5)CC4C3)n2)cn1` (stereo not shown) [Ex. 43, 5-((5-chloro-2-((1-(2-hydroxy-2-methylpropyl)-1H-pyrazol-4-yl)amino)pyrimidin-4-yl)amino)-N-cyclopropylhexahydrocyclopenta[c]pyrrole-2(1H)-sulfonamide], on Aurora-A (h), the IC50 turned out to be 9 nM.
For `Cn1cc(Nc2ncc(Cl)c(NC3CC4CN(c5ccc(C#N)nn5)CC4C3)n2)cn1` (stereo not shown) [Ex. 30, 6-(5-((5-chloro-2-((1-methyl-1H-pyrazol-4-yl)amino)pyrimidin-4-yl)amino)hexahydrocyclopenta[c]pyrrol-2(1H)-yl)pyridazine-3-carbonitrile], in data set [1], the half-life at 5 μM turned out to be 24.9 min and the CLint scaled at 5 μM is 69.8 mL/min/kg. Also, in data set [3], the “Clearance (CL) after iv dosing” value is recorded as 0.93 L/h/kg, the F is listed as 268.4%, the AUC(0-t) turned out to be 1140 ng·h/mL and the half-life is 36.6 min. Moreover, the Vd in data set [3] turned out to be 0.71 L/kg. For the same compound, in data set [2], the half-life at 5 μM came to 8.07 min and the CLint scaled at 5 μM is 308 mL/min/kg.
In the case of `Cn1cc(Nc2ncc(Cl)c(NC3CCC4(CC3)CCN(C(=O)C3CC3)CC4)n2)cn1` [Ex. 22, (9-((5-chloro-2-((1-methyl-1H-pyrazol-4-yl)amino)pyrimidin-4-yl)amino)-3-azaspiro[5.5]undecan-3-yl)(cyclopropyl)methanone], in data set [1], the half-life at 5 μM was found to be 65.7 min and the CLint scaled at 5 μM was 26.5 mL/min/kg. Moreover, in data set [3], the “Clearance (CL) after iv dosing” value came to 1.34 L/h/kg, the F was determined as 84.6%, the AUC(0-t) amounted to 746 ng·h/mL and the half-life was 33.6 min. Further, in data set [3], the Vd is 1.21 L/kg. Moreover, in data set [2], the half-life at 5 μM worked out at 3.33 min and the CLint scaled at 5 μM is 745 mL/min/kg.
For the compound `Cn1cc(Nc2ncc(Cl)c(NC3CC4CN(CC(C)(C)O)CC4C3)n2)cn1` (stereo not shown) [Ex. 16, 1-(5-((5-chloro-2-((1-methyl-1H-pyrazol-4-yl)amino)pyrimidin-4-yl)amino)hexahydrocyclopenta[c]pyrrol-2(1H)-yl)-2-methylpropan-2-ol], the results for the half-life at 5 μM in data set [1] and in data set [2] were 210 min and 6.28 min, respectively. Also, the CLint scaled at 5 μM is 8.27 mL/min/kg in data set [1] and 395 mL/min/kg in data set [2]. 32 nM corresponded to half-maximal inhibition at JAK1 (h) (IC50).
For `Cn1cc(Nc2ncc(Cl)c(NC3CC4CN(S(=O)(=O)CC5CC5)CC4C3)n2)cn1` (stereo not shown) [Ex. 17, 5-chloro-N^4-(2-((cyclopropylmethyl)sulfonyl)octahydrocyclopenta[c]pyrrol-5-yl)-N^2-(1-methyl-1H-pyrazol-4-yl)pyrimidine-2,4-diamine], in data set [1], the half-life at 5 μM stood at 35.7 min and the CLint scaled at 5 μM is 48.6 mL/min/kg. Besides, in data set [3], the “Clearance (CL) after iv dosing” value amounted to 3.25 L/h/kg, the F turned out to be 37.3%, the AUC(0-t) was found to be 308 ng·h/mL and the half-life was 17.4 min. Moreover, in data set [3], the Vd came to 1.44 L/kg. Also, in data set [2], the half-life at 5 μM came to 7.15 min and the CLint scaled at 5 μM was 347 mL/min/kg. It took 6 nM to reach half-maximal inhibition on Aurora-A (h) (IC50).
As for `CC(=O)N1CC2CC(Nc3nc(Nc4cnn(-c5ccccn5)c4)ncc3Cl)CC2C1` (stereo not shown) [Ex. 8, 1-(5-((5-chloro-2-((1-(pyridin-2-yl)-1H-pyrazol-4-yl)amino)pyrimidin-4-yl)amino)hexahydrocyclopenta[c]pyrrol-2(1H)-yl)ethanone], in data set [1], the half-life at 5 μM was found to be 31.4 min and the CLint scaled at 5 μM was 55.3 mL/min/kg. Further, in data set [3], the “Clearance (CL) after iv dosing” value was found to be 1.86 L/h/kg, the F is listed as 36.9%, the AUC(0-t) was 558 ng·h/mL and the half-life is 33.6 min. For the same compound, the Vd in data set [3] amounted to 1.55 L/kg. Moreover, in data set [2], the half-life at 5 μM turned out to be 16.2 min and the CLint scaled at 5 μM is 153 mL/min/kg.
In turn, `Cn1cc(Nc2ncc(Cl)c(NC3CC4CN(S(=O)(=O)C(C)(C)C)CC4C3)n2)cn1` (stereo not shown) [Ex. 31, N^4-(2-(tert-butylsulfonyl)octahydrocyclopenta[c]pyrrol-5-yl)-5-chloro-N^2-(1-methyl-1H-pyrazol-4-yl)pyrimidine-2,4-diamine] came in with an IC50 at Aurora-A (h) of 50 nM.
As to `Cn1cc(Nc2ncc(Cl)c(NC3CCC4(CC3)CCN(CC(C)(C)O)CC4)n2)cn1` [Ex. 21, 1-(9-((5-chloro-2-((1-methyl-1H-pyrazol-4-yl)amino)pyrimidin-4-yl)amino)-3-azaspiro[5.5]undecan-3-yl)-2-methylpropan-2-ol], in data set [1], the half-life at 5 μM turned out to be 404 min and the CLint scaled at 5 μM is 4.3 mL/min/kg. In addition, in data set [3], the “Clearance (CL) after iv dosing” value stood at 6.54 L/h/kg, the F worked out at 118.2%, the AUC(0-t) was found to be 147 ng·h/mL and the half-life is 87.6 min. The Vd in data set [3] is 11.9 L/kg. Further, in data set [2], the half-life at 5 μM stood at 62.9 min and the CLint scaled at 5 μM is 39.5 mL/min/kg.
On Aurora-A (h), `O=C(NC1CC1)N1CC2CC(Nc3nc(Nc4cnn(C5CCNC5)c4)ncc3Cl)CC2C1` (stereo not shown) [Ex. 40, 5-((5-chloro-2-((1-(pyrrolidin-3-yl)-1H-pyrazol-4-yl)amino)pyrimidin-4-yl)amino)-N-cyclopropylhexahydrocyclopenta[c]pyrrole-2(1H)-carboxamide] showed an IC50 of 12 nM.

By CLint scaled is commonly meant the rate of metabolic loss divided by the concentration. Broadly, the IC50 is the concentration that gives 50% inhibition. High values mean lower potency, low ones higher potency. The AUC(0-t) is the area under the concentration-time curve up to a stated or last time point.
